Consider one molecule from article PMC4971421, “Redox-Dependent Modulation of T-Type Ca^2+ Channels in Sensory Neurons Contributes to Acute Anti-Nociceptive Effect of Substance P” (Antioxidants & Redox Signaling, 2016).

SMILES strings stand for the structures.

Data set [1] concerns rat hind paw. The experiment in a line: Hargreaves test, paw withdrawal latency to noxious heat. The format is in vivo. The note with it: hind-paw injection 50 μl; 0.005–0.5 nmol/site; 8 min after injection. The method, then: For measurement of thermal hyperalgesia, the change in the latency of hind-paw withdrawal in response to noxious heat was recorded using the Hargreaves’ plantar method (Ugo Basile) at 8 min after the hind-paw injection of drugs; the heat source was set to 25% of the maximal intensity.

The next data set deals with hERG channels. The note with it: 1 μM; cited from earlier work.
Data set [2] concerns rat hind paw. The experiment in a line: von Frey test. It is filed as in vivo. The note with it: 50 μl; 0.5 nmol/site; filaments 2–15 g; 8 min after injection. The method, then: For measurement of sensitivity to gentle touch and mechanical hyperalgesia, two methods were used. (i) Cotton swab test was performed as previously described ([53]). Briefly, rats were allowed to acclimate in a cage with a wire mesh bottom for at least 30 min and then were manually probed with a “cotton swab” pulled from a Q-tip (to approximately three times the original size). A swab was applied in a sweeping motion underneath the rats’ paws, and the withdrawal responses were recorded. Five sweeps were applied in each test, with at least 10 s between each sweep; withdrawal score was calculated as a percentage of positive responses. (ii) The von Frey test was performed using a calibrated range of filaments with different bending forces (2, 4, 6, 8, 10, and 15 g; Stoelting Co.). A single filament was applied perpendicularly to the plantar surface of the hind paw for five times, with an interval of 5 s, and it was scored for withdrawal responses. Each force was probed five times, the number of withdrawals out of five trials was counted, and the percentage of withdrawal responses was calculated. Both types of assays were performed 8 min after the hind-paw drug injection.

Another data set has as its system N-type VGCCs. The note with it: 1 μM; cited from earlier work.
For another data set, the system named is CaV3. Conditions: read-out: IC50, CaV3 inhibition; cited from earlier work. The method, then:
(§1) The T-type Ca^2+ current is an important regulator of sensory neuron excitability ([10], [17], [18], [20], [23], [24], [51], [71], [75]). […] Z944 (1 μM) inhibited LVA curren ...

For the next data set, the system named is L-type VGCCs. The note with it: 1 μM; cited from earlier work. The method, then:
as §1

Data set [3] concerns small-diameter DRG neurons. Put plainly: DRG neuron excitability, perforated patch current clamp. The format is cell-based, rat. The method, then:
To knock down CaV3.2, DRGs were dissociated as described ([13]); immediately after dissociation, DRG pellets were resuspended in 900 μl DMEM (without GlutaMax I, serum or antibiotics), to which a mixture of 9 μl Lipofectamine RNAiMAX (Invitrogen) and either a mix of three anti-Cacna1h Stealth siRNAs (RSS350285, RSS350286, RSS350287; Life Technologies; 200 nM each) or a scrambled control oligo (Stealth RNAi™ siRNA Negative Control; Life Technologies; 200 nM) were added immediately before resuspension. Cultures were than plated in 50 μl droplets onto glass coverslips that were coated with poly-D-lysine and incubated for 5–6 h; the transfection media were then replaced with full DRG culture medium. Patch-clamp recordings were conducted 24–48 h after the transfection. The following primers were used for reverse transcription polymerase chain reaction (RT-PCR) analysis: • Cacna1h sense: 5′-[…]-3′ • Cacna1h AS: 5′-[…]-3′ • Gapdh sense: 5′-[…]-3′ • Gapdh AS: 5′-[…]-3′
Neuronal excitability was studied using the amphotericin B-perforated patch-clamp current technique ([13]). The extracellular solution contained the following (in mM): 160 NaCl, 2.5 KCl, 5 CaCl2, 1 MgCl2, 10 HEPES, and 8 Glucose. The intracellular solution contained the following (in mM): 145 KCl, 15 NaCl, 5 MgCl2, 10 HEPES, and 250 μg/ml Amphotericin B. The access resistance was typically within […]. APs were generated by an injection of 200 pA current for 1 s from a holding current of 0 pA. Rheobase was determined from a train of current steps from 0 to 400 pA delivered in 20-pA increments. Current clamp recordings were sampled at 12.5 kHz. Bridge balance adjustments were not applied, since only relative changes in Erest, AP number, and rheobase were investigated.

For data set [4], the system named is rat hind paw. The experiment in a line: BK-induced nocifensive behavior, pre-injection protocol. The note with it: for BK-induced nociception: 5 min before BK 10 nmol/site. It is filed as in vivo. The method, then: Sprague–Dawley rats (body weight, 170–180 g) were grouped randomly and allowed to acclimate for at least 30 min in a transparent observation chamber before the experiment. Animals received a 50-μl intraplantar injection of ST101 (0.001–10 nmol/site), BK (10 nmol/site), RTG (1–10 nmol/site), Z944 (0.05–5 nmol/site), SP (0.5–5 nmol/site), or saline, respectively, into the right hind paw. For evaluation of the acute “spontaneous” pain, animals were video-recorded for 30 min after the injection and protective (“nocifensive”) behavior was analyzed as time spent licking, biting, lifting, and flinching the injected paw. The analyses were performed by an observer who was unaware of treatment allocations. In the pre-injection experiments, the right hind paw of the animal received a pre-injection of 50 μl Z944 (0.05–0.5 nmol/site), RTG (1–10 nmol/site), SP (0.5 nmol/site), Z944 (0.05–0.5 nmol/site)+RTG (1 nmol/site), or saline; 5 min later, on the same paw, the animal received a further 50-μl injection of BK (10 nmol/site) together with the pre-injection drug mix. Nocifensive behavior was analyzed as described earlier.
The in vivo CaV3.2 knock-down was performed as described earlier ([3]) by using the same ODN sequences that were synthesized by SBS Genetech. AS ODNs had the following sequence: […]. The mismatch ODNs of the following sequence were used as a negative control: […]. The mismatch ODN was not complementary to any known nucleotide sequence. ODNs were reconstituted in saline before injection. ODNs (12.5 μg/rat in 10 μl of saline) or saline were injected intrathecally (i.t.) between the L5 and L6 dorsal spinous processes as described earlier ([3], [42]) under isoflurane anesthesia. The treatment was repeated twice daily for 4 days. The pain tests were performed on the next day after the last injection. After behavioral testing, animals were humanly sacrificed; lumbar DRGs were extracted and analyzed for the knock-down efficiency by comparing the Cacna1h mRNA levels in lumbar (L4 to L6) DRGs of the saline-injected, mismatch ODN-injected, and AS ODN-injected animals using RT-PCR. The same Cacna1h and Gapdh primers as in siRNA experiments were used for RT-PCR.

As to `CC(C)(C)NC(=O)CN1CCC(CNC(=O)c2cc(F)cc(Cl)c2)CC1` [Z944, N-[[1-[2-(tert-butylamino)-2-oxoethyl]piperidin-4-yl]methyl]-3-chloro-5-fluorobenzamide], in the data set on rat hind paw [1], the “paw withdrawal latency on radiant heat exposure” value is “significantly increased”. In addition, the “effect on hERG channels” value with hERG channels is given as “no significant effect”. Moreover, the “response to von Frey filament stimulation” value in the data set with rat hind paw [2] is reported as “significantly impaired their ability to respond to stimulation”. Also, the “effect on N-type VGCCs” value with N-type VGCCs was “no significant effect”. Besides, the half-maximal inhibitory concentration (IC50) in the data set with CaV3 was about 50 nM. The “effect on L-type VGCCs” value in the data set with L-type VGCCs is on record as “no significant effect”. For the same molecule, in data set [3], the “AP amplitude or duration” value was “without significantly affecting” and the “resting membrane potential (Erest)” value is listed as “hyperpolarized”. For the same molecule, the “action potential (AP) firing” value in data set [3] (200 pA for 1 s) is reported as “decreased”. Further, the “effects of BK on the rheobase and the AP number when co-applied with BK” value in data set [3] (BK 250 nM) is “completely reversed”. Further, the rheobase entry in data set [3] (current steps 0–400 pA in 20-pA increments) is listed as “significantly increased”. The “small DRG neuron excitability” value in data set [3] (perforated current clamp) is recorded as “decreased”. In data set [3] (siRNA against Cacna1h), the “effect on Erest, AP number, or rheobase in Cacna1h knocked-down neurons” value is on record as “neither Z994 nor ST101 produced any significant effect”. The “nocifensive behavior produced by hind-paw BK injection in saline- and mismatch ODN-injected animals” value in the data set on rat hind paw [4] (0.5 nmol/site, BK 10 nmol/site) is given as “still significantly attenuated”. In addition, the BK-induced nociception entry in the data set on rat hind paw [4] (pre-injection 0.05 nmol/site) is “not at 0.05 nmol/site”. Moreover, the BK-induced nociception entry in the data set on rat hind paw [4] (pre-injection 0.5 nmol/site) was “significantly attenuated”.
